Results reported in patent US20240116946A1 (Gilead Sciences, Inc., priority 2022, published 2024).
Like-named read-outs stand apart in the source and are kept apart here.

Key:
SARS-CoV-2-NLuc = experiment: microbe, parasite or virus in culture; assay type: cell-based, SARS Coronavirus 2
[1] = molecular target: recombinant SARS-CoV-2 Main protease (Mpro) (Severe acute respiratory syndrome coronavirus 2 (2019-nCoV) (SARS-CoV-2), UniProt P0DTD1); experiment: Cov Mpro Biochemical IC50 Assay
[2] = Severe acute respiratory syndrome coronavirus, 48 h; read-out: MPro EC50
[3] = recombinant SARS-CoV-2 Mpro 7.5 nM, fluorogenic peptide substrate 40 μM, read-out: MPro IC50
[4] = Severe acute respiratory syndrome coronavirus, 48 h, read-out: MPro EC50
[5] = recombinant SARS-CoV-2 Mpro, fluorogenic peptide substrate, read-out: MPro IC50

## N#CCCn1c(=O)n(-c2cncc(C(F)F)c2)c(=O)c2sc(-c3ccccc3C#N)cc21 [Example 888]
SARS-CoV-2-NLuc; [2]
  EC50: 91.5 nM
[1]; [3]
  IC50: 25.8 nM

## COc1cc(-c2cc3[nH]c(=O)n(-c4cncc5c4c(C)cn5C)c(=O)c3s2)c(Cl)cc1F [Example 706]
SARS-CoV-2-NLuc; [4]
  EC50: 6.53 nM
[1]; [3]
  IC50: 5.93 nM

## O=c1[nH]c2cc(-c3ccccc3Cl)sc2c(=O)n1-c1cncc2c1CCC2 [Example 107]
SARS-CoV-2-NLuc; [4]
  EC50: 71.7 nM
[1]; [5]
  IC50: 31.8 nM

## Cn1ncc2cncc(-n3c(=O)c4sc(-c5ccc(F)cc5C#N)cc4n(CCC#N)c3=O)c21 [Example 785]
SARS-CoV-2-NLuc; [4]
  EC50: 137 nM
[1]; [3]
  IC50: 37.8 nM

## COc1ccc(C#N)c(-c2cc3[nH]c(=O)n(-c4cncc5ccc(OC)cc45)c(=O)c3s2)c1 [Example 626]
SARS-CoV-2-NLuc; [4]
  EC50: 32.2 nM
[1]; [3]
  IC50: 7.68 nM

## COc1ccc(Cl)c(-c2ccc3c(=O)n(-c4cncc5ccccc45)c(=O)[nH]c3c2)c1 (single isomer, unassigned) [Example 476, 7-(2-chloro-5-methoxy-phenyl)-3-(4-isoquinolyl)-1H-quinazoline-2,4-dione]
SARS-CoV-2-NLuc; read-out: MPro EC50
  EC50: 259 nM
[1]; [3]
  IC50: 258 nM

## COc1cc(-c2cc3c(s2)c(=O)n(-c2cnccc2C(F)(F)F)c(=O)n3CCC#N)c(C#N)cc1F [Example 862]
SARS-CoV-2-NLuc; [4]
  EC50: 210 nM
[1]; [3]
  IC50: 95.3 nM

## COc1cccc(F)c1-c1ccc2c(=O)n(-c3cncc4ccccc34)c(=O)[nH]c2c1 [Example 61]
SARS-CoV-2-NLuc; [4]
  EC50: 648 nM
[1]; [5]
  IC50: 914 nM

## Cc1c(-c2ccccc2Cl)sc2[nH]c(=O)n(-c3cncc4ccccc34)c(=O)c12 [Example 75]
SARS-CoV-2-NLuc; [4]
  EC50: 9390 nM
[1]; [5]
  IC50: 854 nM

## COc1cc(-c2cc3c(s2)c(=O)n(-c2cncc4[nH]nc(C)c24)c(=O)n3CCC#N)c(Cl)cc1F (single isomer, unassigned) [Example 959, 3-(6-(2-chloro-4-fluoro-5-methoxyphenyl)-3-(3-methyl-1H-pyrazolo[3,4-c]pyridin-4-yl)-2,4-dioxo-3,4-dihydrothieno[3,2-d]pyrimidin-1(2H)-yl)propanenitrile]
SARS-CoV-2-NLuc; read-out: MPro EC50
  EC50: 5.86 nM
[1]; [3]
  IC50: 5.11 nM

## 5-fluoro-2-[6-fluoro-3-(4-isoquinolyl)-2,4-dioxo-1H-quinazolin-7-yl]-4-methoxy-benzonitrile [Example 517]
SARS-CoV-2-NLuc; read-out: MPro EC50
  EC50: 35.9 nM
[1]; [3]
  IC50: 9.51 nM

## COc1cc(-c2ccc3c(=O)n(-c4cncc5ccccc45)c(=O)n(CC#N)c3c2)c(Cl)cc1F [Example 897]
SARS-CoV-2-NLuc; [4]
  EC50: 85.4 nM
[1]; [3]
  IC50: 11.2 nM

## COc1cc(Cl)c(-c2cc3[nH]c(=O)n(-c4cncc5ccccc45)c(=O)c3s2)cc1C [Example 723]
SARS-CoV-2-NLuc; [4]
  EC50: 17.2 nM
[1]; [3]
  IC50: 21.1 nM

## COc1cc(-c2cc3c(s2)c(=O)n(-c2cncc4ccccc24)c(=O)n3CCC#N)c(Cl)cc1Cl [Example 832]
SARS-CoV-2-NLuc; [4]
  EC50: 7.16 nM
[1]; [3]
  IC50: 7.71 nM

## COc1cc(-c2nc3[nH]c(=O)n(-c4cncc5ccccc45)c(=O)c3s2)c(Cl)cc1F [Example 704]
SARS-CoV-2-NLuc; [2]
  EC50: 248 nM
[1]; MPro IC50, recombinant SARS-CoV-2 Mpro 7.5 nM, fluorogenic peptide substrate 40 μM
  IC50: 34.4 nM

## N#CCCn1c(=O)n(-c2cncc3cccc(F)c23)c(=O)c2sc(-c3ccccc3C#N)cc21 [Example 1085]
SARS-CoV-2-NLuc; [4]
  EC50: 41.6 nM
[1]; [3]
  IC50: 23.1 nM

## COCc1cccc(Cl)c1-c1ccc2c(=O)n(-c3cncc4ccccc34)c(=O)[nH]c2c1 [Example 100]
SARS-CoV-2-NLuc; [4]
  EC50: 448 nM
[1]; [5]
  IC50: 326 nM

## COc1cnc(Cl)c(-c2cc3[nH]c(=O)n(-c4cncc(C5CC5)c4)c(=O)c3s2)c1 [Example 369]
SARS-CoV-2-NLuc; [2]
  EC50: 110 nM
[1]; [5]
  IC50: 9.23 nM

## O=c1[nH]c2cc(-c3ccsc3Cl)sc2c(=O)n1-c1cncc2ccccc12 [Example 21]
SARS-CoV-2-NLuc; [4]
  EC50: 204 nM
[1]; [5]
  IC50: 32.5 nM

## COc1cc(-c2cc3[nH]c(=O)n(-c4cncc5cccnc45)c(=O)c3cc2OC)c(C#N)cc1F [Example 684]
SARS-CoV-2-NLuc; [4]
  EC50: 119 nM
[1]; [3]
  IC50: 13.5 nM

## COc1ccc(C#N)c(-c2cc3[nH]c(=O)n(-c4cncc5ccc(N6CC(F)(F)OC(F)(F)C6)cc45)c(=O)c3s2)c1 [Example 230]
SARS-CoV-2-NLuc; [4]
  EC50: 128 nM
[1]; [5]
  IC50: 23.8 nM

## O=c1[nH]c2cc(-c3c(Cl)cccc3-c3cn4ncnc4c4c3CCC4)sc2c(=O)n1-c1cncc2ccccc12 [Example 520]
SARS-CoV-2-NLuc; [4]
  EC50: 14.6 nM
[1]; [3]
  IC50: < 2.54 nM

## Cn1ncc2cncc(-n3c(=O)c4sc(-c5ccccc5Cl)cc4n(CCC#N)c3=O)c21 [Example 781]
SARS-CoV-2-NLuc; [4]
  EC50: 4.81 nM
[1]; [3]
  IC50: 5.06 nM

## COc1cc(C#N)c(-c2cc3[nH]c(=O)n(-c4cncc5ccccc45)c(=O)c3s2)cc1OC [Example 544]
SARS-CoV-2-NLuc; [4]
  EC50: 202 nM
[1]; [3]
  IC50: 16.8 nM

## COc1cnc(C#N)c(-c2cc3c(s2)c(=O)n(-c2cncc4ccccc24)c(=O)n3CCC#N)c1 (single isomer, unassigned) [Example 1093, 3-(1-(2-cyanoethyl)-3-(isoquinolin-4-yl)-2,4-dioxo-1,2,3,4-tetrahydrothieno[3,2-d]pyrimidin-6-yl)-5-methoxypicolinonitrile]
SARS-CoV-2-NLuc; read-out: MPro EC50
  EC50: 160 nM
[1]; [3]
  IC50: 104 nM

## COc1cc(-c2cc3[nH]c(=O)n(-c4cncc5ccccc45)c(=O)c3cc2OC)c(Cl)cc1F (single isomer, unassigned) [Example 1055, 7-(2-chloro-4-fluoro-5-methoxyphenyl)-3-(isoquinolin-4-yl)-6-methoxyquinazoline-2,4(1H,3H)-dione]
SARS-CoV-2-NLuc; read-out: MPro EC50
  EC50: 460 nM
[1]; [3]
  IC50: 459 nM

## COc1cc(-c2cc3[nH]c(=O)n(-c4cncc5c4c(C)nn5CC(F)(F)F)c(=O)c3s2)c(Cl)cc1F [Example 741]
SARS-CoV-2-NLuc; [4]
  EC50: > 1000 nM
[1]; [3]
  IC50: > 1000 nM

## COc1ccc(Cl)c(-c2cc3[nH]c(=O)n(-c4cncc5sc(C(C)(C)O)c(C)c45)c(=O)c3s2)c1 [Example 516]
SARS-CoV-2-NLuc; [4]
  EC50: 7.87 nM
[1]; [3]
  IC50: 5.27 nM

## COc1cnc(Cl)c(-c2cc3c(s2)c(=O)n(-c2cncc4ccccc24)c(=O)n3CC2(C#N)CC2)c1 [Example 759]
SARS-CoV-2-NLuc; [4]
  EC50: 4.85 nM
[1]; [3]
  IC50: 5.39 nM

## O=c1[nH]c2cc(-c3ccccc3Cl)ccc2c(=O)n1-c1cncc(C(F)(F)F)c1 [Example 578]
SARS-CoV-2-NLuc; [2]
  EC50: 9870 nM
[1]; [3]
  IC50: > 50000 nM

## COc1ccc2cncc(-n3c(=O)[nH]c4cc(-c5ccccc5Cl)sc4c3=O)c2c1 (single isomer, unassigned) [Example 441, 6-(2-chlorophenyl)-3-(6-methoxyisoquinolin-4-yl)thieno[3,2-d]pyrimidine-2,4(1H,3H)-dione]
SARS-CoV-2-NLuc; read-out: MPro EC50
  EC50: 239 nM
[1]; [3]
  IC50: 109 nM

## O=c1[nH]c2cc(-c3ccccc3Cl)ccc2c(=O)n1-c1cccnc1 [Example 122]
SARS-CoV-2-NLuc; [4]
  EC50: 3910 nM
[1]; [5]
  IC50: 1010 nM

## COCCOc1ccc(Cl)c(-c2ccc3c(=O)n(-c4cncc5ccccc45)c(=O)[nH]c3c2)c1 [Example 251]
SARS-CoV-2-NLuc; [4]
  EC50: 150 nM
[1]; [5]
  IC50: 68.2 nM

## Cn1ncc2cncc(-n3c(=O)c4sc(-c5ccc(F)cc5Cl)cc4n(CCC#N)c3=O)c21 (single isomer, unassigned) [Example 955, 3-(6-(2-chloro-4-fluorophenyl)-3-(1-methyl-1H-pyrazolo[4,3-c]pyridin-7-yl)-2,4-dioxo-3,4-dihydrothieno[3,2-d]pyrimidin-1(2H)-yl)propanenitrile]
SARS-CoV-2-NLuc; read-out: MPro EC50
  EC50: 9.67 nM
[1]; [3]
  IC50: 6.81 nM

## COc1ccc(Cl)c(-c2cc3[nH]c(=O)n(-c4cncc5sc(C#N)c(C)c45)c(=O)c3s2)c1 [Example 1050, 4-(6-(2-chloro-5-methoxyphenyl)-2,4-dioxo-1,4-dihydrothieno[3,2-d]pyrimidin-3(2H)-yl)-3-methylthieno[2,3-c]pyridine-2-carbonitrile]
SARS-CoV-2-NLuc; [2]
  EC50: 25.5 nM
[1]; [3]
  IC50: 8.89 nM

## COc1cc(-c2cc3[nH]c(=O)n(-c4cncc5cccnc45)c(=O)c3s2)c(Cl)cc1F (single isomer, unassigned) [Example 1009, 6-(2-chloro-4-fluoro-5-methoxy-phenyl)-3-(1,6-naphthyridin-8-yl)-1H-thieno[3,2-d]pyrimidine-2,4-dione]
SARS-CoV-2-NLuc; read-out: MPro EC50
  EC50: 3.96 nM
[1]; [3]
  IC50: 3.99 nM

## O=c1[nH]c2nc(-c3ccccc3Cl)ccc2c(=O)n1-c1cncc2ccccc12 [Example 32]
SARS-CoV-2-NLuc; [2]
  EC50: 7060 nM
[1]; [5]
  IC50: 2280 nM

## Cc1nc(COc2cccc(Cl)c2-c2ccc3c(=O)n(-c4cncc5ccccc45)c(=O)[nH]c3c2)co1 [Example 87]
SARS-CoV-2-NLuc; [4]
  EC50: 203 nM
[1]; [5]
  IC50: 172 nM

## Cc1ccc(C#N)cc1-c1cc2c(s1)c(=O)n(-c1cncc3ccccc13)c(=O)n2CCC#N [Example 810]
SARS-CoV-2-NLuc; [2]
  EC50: 86.9 nM
[1]; [3]
  IC50: 19.8 nM

## Cn1nnc2cncc(-n3c(=O)c4sc(-c5ccccc5C#N)cc4n(CCC#N)c3=O)c21 [Example 877]
SARS-CoV-2-NLuc; [4]
  EC50: 216 nM
[1]; [3]
  IC50: 54.1 nM

## Cc1ccc(Cl)c(-c2ccc3c(=O)n(-c4cncc5ccccc45)c(=O)[nH]c3c2)c1 [Example 252]
SARS-CoV-2-NLuc; [4]
  EC50: 321 nM
[1]; [5]
  IC50: 151 nM

## Cn1cc2ccc(-c3cccc(Cl)c3-c3ccc4c(=O)n(-c5cncc6ccccc56)c(=O)[nH]c4c3)cc2n1 [Example 248]
SARS-CoV-2-NLuc; [4]
  EC50: 40.1 nM
[1]; [5]
  IC50: 87.2 nM
